These results are taken from patent US20150030540A1 (Eli Lilly and Company, priority 2008, published 2015).

Read-outs that look alike come from different tables or passages of the source.

The IC50 is the concentration needed to halve the response being measured. What is called Ki is the dissociation constant of the complex between target and ligand, obtained from inhibition or displacement. The term Kd denotes the free concentration of one partner at which half of the binding sites on the other are occupied at equilibrium, for simple one-to-one binding. By inhibition is commonly meant the percentage by which the read-out fell short of the control.

One data set relates to amyloid binding pockets. Nature of the data set: Blocking of [18F]-CB001 autoradiography staining.
The target of a further data set is T1, Aβ monomer (Homo sapiens, UniProt P05067).
T1 construct: Aβ monomer
T1 sequence (P05067 672-713 limits assumed): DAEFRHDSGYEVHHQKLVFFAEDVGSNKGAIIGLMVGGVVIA
The following applies: read-out: Binding Affinity IC50; cited from earlier work.

For the next data set, the target named is T2, Aβ fibrils (Homo sapiens, UniProt P05067).
T2 construct: Aβ monomer
T2 sequence (P05067 672-713 limits assumed): as above
The following applies: read-out: Binding Affinity Ki; cited from earlier work.

Data set [1] deals with oligomers/polymers (Aβ1-42) (Homo sapiens, UniProt P05067). Put plainly: Biacore assay, Aβ42 oligomers/soluble polymers. In kind it is binding. Details: key: A “+” sign represents a hit; ++: the increase in “+” signs relates to increasing binding affinity; +++: the increase in “+” signs relates to increasing binding affinity; A “−”sign represents no binding. The following applies: 10 uM. The method, then:
β-Amyloid (Aβ42) Soluble Aggregates (Oligomers/Soluble Polymers). Biotin-LC-Aβ42 was mixed with Aβ42 at a ratio of 3:2. After dissolving in 1% NH4OH and dH2O, the mixture (40 uM concentration) was incubated in 1×PBS (pH 7.4) buffer at RT for 6-hours to form oligomers/soluble polymers. The free monomer of Aβ42 in the sample was removed using a Microcon centrifugal filter tube with a 10 KDa of MW cutoff. The Biotin-LC-Aβ42 oligomers/polymers were immobilized onto SA chip by streptavidin-biotin capture. Screening of Amyloid Binding Compounds with Biacore (Surface Plasmon Resonance Analysis). Aβ42 oligomers/soluble polymers or fibrils were immobilized on Flow Cell 2 (Fc2) or Flow Cell 3 (Fc3) of the Sensor Chip, with Fc1 serving as the control. […] The Flow Cells were then washed with running buffer (1×PBS) for 2 minute, and regenerated with 50 mM of NaOH for 30 seconds. The real time interaction between the screening compound and the amyloid aggregates immobilized on the chip surface was recorded in the sensorgram.
In general terms: Surface plasmon resonance follows binding to a sensor surface in real time, without labels.

Another data set deals with fibrils (Aβ1-42) (Homo sapiens, UniProt P05067). Put plainly: Biacore assay, Aβ42 fibrils. In kind it is binding. Details: key: A “+” sign represents a hit; ++: the increase in “+” signs relates to increasing binding affinity; +++: the increase in “+” signs relates to increasing binding affinity; A “−”sign represents no binding. The following applies: 10 uM. As for the experimental part:
β-Amyloid (Aβ42) Insoluble Aggregates (Fibrils). Fibrils were prepared according to methods published previously ([…] et al. 2001). Briefly, 0.5 mg of Aβ42 (Biotin-LC-Aβ42:Aβ42=1:1) was dissolved in 1 ml of PBS, pH 7.4, and mixed with a magnetic stir bar for 3 d at 37° C., resulting in a visibly cloudy solution. The fibril pellet was collected by centrifugation. The Biotin-LC-Aβ42 fibrils were immobilized onto SA chip by streptavidin-biotin capture. Screening of Amyloid Binding Compounds with Biacore (Surface Plasmon Resonance Analysis). Aβ42 oligomers/soluble polymers or fibrils were immobilized on Flow Cell 2 (Fc2) or Flow Cell 3 (Fc3) of the Sensor Chip, with Fc1 serving as the control. […] The Flow Cells were then washed with running buffer (1×PBS) for 2 minute, and regenerated with 50 mM of NaOH for 30 seconds. The real time interaction between the screening compound and the amyloid aggregates immobilized on the chip surface was recorded in the sensorgram.

The target in another data set is T3, tau (Homo sapiens, UniProt P10636).
T3 construct: Native forms of tau (various isoforms, hyperphosphorylated) and amyloid aggregates are present in brain sections and therefore preferred for compound testing
T3 sequence (P10636 623-758 limits assumed): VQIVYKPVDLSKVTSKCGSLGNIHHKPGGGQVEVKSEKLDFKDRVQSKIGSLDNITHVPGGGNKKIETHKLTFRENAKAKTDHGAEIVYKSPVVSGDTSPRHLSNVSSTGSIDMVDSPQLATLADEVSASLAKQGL
Put plainly: KD (tau) binding. The following applies: read-out: KD (tau). The text has this:
(§1) When injected intravenously into mice, the Carbazole based compounds; in particular T807, T805 and T794 have shown excellent brain uptake. These compounds also display high binding affinity to tau fibrils. […] In neuropathological staining, compounds of the present invention stained amyloid plaques and/or tau aggregates.
(§2) Furthermore, the selectivity can be evaluated in brains containing only Aβ plaques/no tau aggregates, Aβ plaques/and tau aggregates, and control brains. Unfortunately, there are no AD brains with only tau and no Aβ present. By testing radiolabeled tracers in these brain sections, one can more quantitative evaluate the relative binding strength (signal strength) and selectivity of various test compounds as they all contain the same radioactive tracer. For examples, if a test tracer binds only to tau, and not amyloid, it should show no signal in the Aβ plaques only brain sections. If a compound binds only to amyloid, it should show uptake in both types of brains. The difficulty of identifying and further quantifying selective compounds lies in the relative abundance of amyloid vs. tau, which is difficult to measure.

In another data set the test system is tau/Ab. Nature of the data set: selectivity (tau/Ab). Format: binding.
Excerpt: as §2

Data set [2] is described as follows: GM Intensity (comp. with W372). In kind it is binding. The following applies: compared with W372.
Data set [3] in a line: background in normal brain. Format: binding.
Excerpt: as §2

For the next data set, the system named is tau/amyloid. Put plainly: Tx/tau/amyloid correlation. In kind it is binding.
The nature of data set [4]: Brain uptake in rats and mice. Format: in vivo.
Data set [5] is described as follows: Brain uptake after intravenous injection into mice. In kind it is in vivo. The following applies: injected intravenously into mice.
Excerpt: as §1

Another data set deals with human hepatocytes. Put plainly: Metabolism in human hepatocytes. Format: in vitro ADME.
Another data set has as its target AchE (Homo sapiens, UniProt P22303). Put plainly: AchE activity (IC50). In kind it is biochemical.
In a further data set the target is T4, MAO-A (Homo sapiens, UniProt P21397).
T4 sequence (P21397 1-527): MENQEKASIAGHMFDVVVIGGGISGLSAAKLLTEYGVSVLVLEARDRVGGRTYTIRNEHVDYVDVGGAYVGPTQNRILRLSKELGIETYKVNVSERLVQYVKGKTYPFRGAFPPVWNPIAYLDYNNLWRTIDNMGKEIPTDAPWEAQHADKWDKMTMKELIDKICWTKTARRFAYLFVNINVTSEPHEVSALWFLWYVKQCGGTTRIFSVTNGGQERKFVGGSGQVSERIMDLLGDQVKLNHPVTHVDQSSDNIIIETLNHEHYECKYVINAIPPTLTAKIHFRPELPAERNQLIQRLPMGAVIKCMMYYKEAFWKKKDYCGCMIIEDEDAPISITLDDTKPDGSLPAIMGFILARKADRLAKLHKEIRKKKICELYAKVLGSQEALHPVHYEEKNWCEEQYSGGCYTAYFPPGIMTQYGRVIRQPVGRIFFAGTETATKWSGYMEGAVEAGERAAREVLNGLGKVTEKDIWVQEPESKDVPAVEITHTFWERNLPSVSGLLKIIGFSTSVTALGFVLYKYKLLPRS
Nature of the data set: MAO inhibition, MAO-A. Format: biochemical.

In another data set the target is T5, MAO-B (Homo sapiens, UniProt P27338).
T5 sequence (P27338 1-520): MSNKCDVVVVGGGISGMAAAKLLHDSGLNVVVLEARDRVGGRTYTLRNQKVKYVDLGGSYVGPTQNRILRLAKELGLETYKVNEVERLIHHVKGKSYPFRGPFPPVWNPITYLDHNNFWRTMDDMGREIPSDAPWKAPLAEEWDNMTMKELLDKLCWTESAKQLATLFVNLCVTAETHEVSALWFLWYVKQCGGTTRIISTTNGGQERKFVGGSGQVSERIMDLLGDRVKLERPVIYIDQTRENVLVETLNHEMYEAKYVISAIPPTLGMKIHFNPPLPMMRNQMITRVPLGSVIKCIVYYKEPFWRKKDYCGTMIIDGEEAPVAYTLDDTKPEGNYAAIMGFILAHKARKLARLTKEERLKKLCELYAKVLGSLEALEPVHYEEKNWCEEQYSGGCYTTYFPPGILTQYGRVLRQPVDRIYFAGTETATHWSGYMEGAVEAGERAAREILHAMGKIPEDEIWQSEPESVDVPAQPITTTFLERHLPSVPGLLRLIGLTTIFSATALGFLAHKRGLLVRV
Nature of the data set: MAO inhibition, MAO-B. Format: biochemical.

A short description of data set [6]: Grey to white matter binding, autoradiography of AD patient brain slices. Details: species or system human. The following applies: for Grey/white matter binding ratio using mild wash conditions: mild wash: 30%/40%/20% EtOH:water. The method, then: A study was conducted to examine the grey to white matter binding ratios for 4 different tracers: CB-001, CB-003, FDDNP and F-PiB (FIG. 7 and FIG. 8 of U.S. Ser. No. 12/372,717). […] After the human brain slices from AD patients were incubated with a given tracer for 30 min, the slices were washed with various EtOH:water solutions in an attempt to optimize the grey to white matter ratios (FIG. 9 of U.S. Ser. No. 12/372,717). The results were surprising and unexpected in view of previous work performed by other researchers. CB-001 has a slightly higher c Log P than FDDNP (3.8 vs 3.4) and would be expected to have poorer washout than FDDNP based on these values. […] More specifically, the white matter binding of FDDNP is several shades darker than CB-001's white matter binding, indicating low non-specific binding of CB-001.

In data set [7] the target is Amyloid (AD Patient's Brain Slice) (Homo sapiens, UniProt P05067). Put plainly: IC50 determination with [18F]-PiB by ex vivo competition assay using autoradiography staining. In kind it is binding. The text has this:
Ex Vivo Competition Assay Using Amyloid (AD Patient's Brain Slice) Autoradiography Staining

Data set [8] is described as follows: microPET imaging of AD-CB-001 in rat. The following applies: tail vein, 30 min dynamic microPET scan. In kind it is in vivo, Sprague-Dawley rat. As for the experimental part: A white Sprague-Dawley rat was injected via tail vein with ˜850 uCi AD-CB-001, formulated in 10% EtOH:water. A dynamic scan was conducted for 30 min on a R4 microPET scanner. The data was reconstructed using 1 min framing.

Amyloid (AD Patient's Brain Slice), sequence (P05067 672-711 limits assumed): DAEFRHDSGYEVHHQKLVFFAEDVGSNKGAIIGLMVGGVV
AchE, sequence (P22303 32-614): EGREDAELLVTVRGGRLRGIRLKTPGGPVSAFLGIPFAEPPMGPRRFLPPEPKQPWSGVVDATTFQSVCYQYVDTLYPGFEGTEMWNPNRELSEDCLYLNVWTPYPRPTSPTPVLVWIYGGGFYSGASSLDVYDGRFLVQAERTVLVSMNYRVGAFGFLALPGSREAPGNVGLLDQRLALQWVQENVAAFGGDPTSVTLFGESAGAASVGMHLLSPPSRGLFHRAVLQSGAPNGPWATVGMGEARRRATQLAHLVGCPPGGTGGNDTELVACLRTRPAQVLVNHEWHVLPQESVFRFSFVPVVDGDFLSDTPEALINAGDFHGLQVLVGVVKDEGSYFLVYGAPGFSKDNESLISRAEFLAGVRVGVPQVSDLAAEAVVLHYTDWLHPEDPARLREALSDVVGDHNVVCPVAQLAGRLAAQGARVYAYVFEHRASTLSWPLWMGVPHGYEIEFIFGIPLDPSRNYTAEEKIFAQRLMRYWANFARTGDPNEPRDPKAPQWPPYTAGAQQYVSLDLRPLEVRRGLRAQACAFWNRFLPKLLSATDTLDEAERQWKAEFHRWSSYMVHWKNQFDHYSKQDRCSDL
fibrils (Aβ1-42), sequence (P05067 672-713 limits assumed): as the sequence (P05067 672-713 limits assumed) above
oligomers/polymers (Aβ1-42), sequence (P05067 672-713 limits assumed): as above

With `CC(=C(C#N)C#N)c1ccc2cc(N(C)CCF)ccc2c1` [FDDNP], in the data set with amyloid binding pockets, the “blocking of [18F]-CB001 staining” value is given as “much less capable of blocking”.
Regarding `O=S(=O)(O)c1cccc2cccc(Nc3ccccc3)c12` [ANS], the IC50 on Aβ monomer is over 100000 nM.
In the case of `[11CH3]Nc1ccc(-c2cc3ccc(O)cc3o2)cc1`, the Ki at Aβ fibrils is 2.8 nM.
As for `COc1cc(/C=C/C(=O)/C=C(O)/C=C/c2ccc(O)c(OC)c2)ccc1O` [Curcumin], the IC50 on Aβ monomer is 10000 to 20000 nM.
As for `Nc1c(/N=N/c2ccc(-c3ccc(/N=N/c4cc(S(=O)(=O)O)c5ccccc5c4N)cc3)cc2)cc(S(=O)(=O)O)c2ccccc12` [Congo Red], on Aβ monomer, the IC50 was 2000 to 10000 nM.
With `CNc1ccc(-c2nc3ccc(O)cc3s2)cc1` [PiB], in the data set on amyloid binding pockets, the “blocking of [18F]-CB001 staining” value is “blocks [18F]-CB001 staining with increasing concentrations”.
Harmol: the “Binding to oligomers/polymers (Aβ1-42)” value in data set [1] is reported as “++”. The “Binding to fibrils (Aβ1-42)” value on fibrils (Aβ1-42) is recorded as “+”.
Turning to `Fc1ccc(-c2ccc3c(c2)[nH]c2ccncc23)cn1` [T807, 7-(6-Fluoropyridine-3-yl)-5H-pyrido[4,3-b]indole], the Kd on tau came out at 15 nM. Moreover, in the data set with tau/Ab, the “selectivity (tau/Ab)” value is 29x. Moreover, the “GM Intensity (comp. with W372)” value in data set [2] was 28%. For the same compound, in data set [3], the “background (normal brain 32566) PSL/mm2” value was 61 PSL/mm2. Moreover, in the data set on tau/amyloid, the Tx/tau/amyloid correlation entry is “yes”. Besides, the Brain uptake result in [4] is listed as “yes (3 rats, 3 mice)”; in data set [5] it was “excellent”. For the same compound, the “human hepatocytes (metabolic stability)” value with human hepatocytes was “somewhat stable”. The same compound had an IC50 at AchE of 6000 nM. Further, the inhibition at 1 µM against MAO-A and against MAO-B was 0% in each case.
Turning to F-PiB, the overall signal result in data set [6] is listed as “very weak”. Besides, the concentration for half-maximal inhibition (IC50) was found to be 45 nM in [7] (average of determinations, read-out: Average IC50); 40 nM in data set [7] (determination 9, read-out: IC50 9); 50 nM in data set [7] (determination 10, read-out: IC50 10); 55 nM in data set [7] (determination 11, read-out: IC50 11); 41 nM in data set [7] (determination 12, read-out: IC50 12).
For the compound `FCCOc1ccc2c(c1)[nH]c1ccccc12` [CB-001, 2-(2-fluoroethoxy)-9H-carbazole], in data set [8], the “brain entry and washout” value is “entered the rat brain and quickly washed out”. Besides, the non-specific binding propensity entry in data set [6] (compared to FDDNP) is recorded as “lower”. In addition, the “Grey/white matter binding ratio using harsh FDDNP wash conditions” value in [6] (harsh FDDNP wash: 70%/90%/70% EtOH:water) is “Excellent”. The “Grey/white matter binding ratio using mild wash conditions” value in data set [6] is recorded as “Poor”. Besides, the “grey to white matter ratio” value in data set [6] (original wash, text b480) is given as “much better”.
For the compound `FCCc1ccc2c(c1)[nH]c1ccncc12` [T805, 7-(2-Fluoroethyl)-5H-pyrido[4,3-b]indole], the Kd on tau came to 32 nM. For the same compound, the “selectivity (tau/Ab)” value in the data set on tau/Ab is on record as 14x. Also, in data set [2], the “GM Intensity (comp. with W372)” value worked out at 8%. Besides, the “background (normal brain 32566) PSL/mm2” value in [3] is on record as 49 PSL/mm2. Further, the Brain uptake entry is reported as “yes (2 rats, 2 mice)” in [4] and “excellent” in [5]. Also, the “AchE activity, effect at 10 uM” value at AchE (at 10 uM) is recorded as under 50% at 10 uM. The inhibition at 1 µM at MAO-A and against MAO-B was 0% each time.
For `Oc1ccc2c(c1)[nH]c1ccccc12` [2-Hydroxycarbazole], in data set [1], the “Binding to oligomers/polymers (Aβ1-42)” value is “+++”. Besides, the “Binding to fibrils (Aβ1-42)” value at fibrils (Aβ1-42) is on record as “+”.
For the compound `FCCOCCOCCOc1ccc2c(c1)[nH]c1ccccc12` [CB-003, 2-(2-(2-(2-fluoroethoxy)ethoxy)ethoxy)-9H-carbazole], the “differentiation of healthy and AD brain” value in data set [6] (mild wash protocol) is “clearly differentiate between a healthy brain and an AD brain”. Besides, in [6], the “Grey/white matter binding ratio using mild wash conditions” value is reported as “Excellent”. Also, the “grey to white matter binding ratios” value in data set [6] (milder washing conditions, text b481) was “excellent”.
